Columns and labels:
[1] = Malodor reduction via sensory testing, sweat malodor model; parameters: species or system human; details: trained female panel N=9, 1=no odor to 10=strongest imaginable, averaged, malodor only 5.8, 0.0% control 5.1
Description: (§1) A trained sensory panel consisting of females, (N=9) ages 40-55 years old evaluated the samples. Panelists are regularly trained on fragrance and malodor intensity scoring and must pass routine screening and calibration tests to remain on the panel. Panelist onboarding and orientation was performed following ASTM Committee E-18 on Sensory Evaluation of Materials and Products, Guidelines for the Selection and Training of Sensory Panel Members (ASTM STP758, American Society for Testing and Materials, 1981, pp. 1-35). Panelists were selected based on health, interest, availability, descriptive and scaling ability, olfactory acuity, attitude and personality. Panelists are introduced to intensity measurement using selected intensity standards and exercised in the use of the scaling system to quantify intensity.
(§2) Training and evaluation was performed for six weeks following orientation. Each panelist completed practice sessions where they were exposed to different types of odors (malodor, fragrance, etc.) and different substrates (fabric, clothing, blotter cards, jars, etc.). Panelist inclusion was dependent upon panel administrator discussions, specific response evaluation, and comparison to standards.
(§3) In this example, feminine wash was formulated with various concentrations of 5-methyl-2-(1-methylethyl)-cyclohexanol acetate, as shown in Table 1 below. A sample without of 5-methyl-2-(1-methylethyl)-cyclohexanol acetate was used as a control.
(§4) The sweat malodor model is comprised of malodors including 3-methyl-2-hexenoic acid and 3-mercapto-3-methyl-1-hexanol. The feminine odor model contains acetic acid, 2-methyl-butyric acid, valeric acid and trimethyl amine. The trained panelists subjectively evaluated the samples using a 10-point scoring scale (1=no odor to 10=strongest imaginable). Panelists are first shown the malodor only sample as a reference, and asked to rate its odor intensity. Panelists are then shown the test samples in a blinded fashion labelled with a 3 digit code. There is a 45 second wait time between samples to prevent olfactive fatigue. […]

[2] = Malodor reduction via sensory testing, feminine (vaginal) odor model; parameters: species or system human; details: trained female panel N=9, 1=no odor to 10=strongest imaginable, averaged, malodor only 6.0, 0.0% control 5.3
Description: as §1, §2, §3, §4

[3] = Vapor pressure reduction: malodors in closed flask headspace, cold finger collection, GC FID; format: physicochemical; details: with 1 g active in separate dish, sealed 500 mL flask, four hours, cold finger 10° C.
Description: Two 500 mL Erlenmeyer flasks were prepared with a blend of five malodor substances (200 mg total; indole, methyl phenyl acetate, skatol, p-cresyl isovalerate, isoamyl phenylacetate) in a small dish. To one flask, in a separate small dish, was added 1 g of 5-methyl-2-(1-methylethyl)-cyclohexanol acetate. Each flask was sealed with a cold finger through which water at 10° C. was passed. After four hours, the flasks were opened and the cold fingers were washed with diethyl ether. This eluent is representative of the headspace above the sample, and quantifies the malodor concentration in the air. The collected diethyl ether fractions were made to a standard volume and analyzed by gas chromatography (GC FID). This experiment is meant to analyze the interaction of malodor with 5-methyl-2-(1-methylethyl)-cyclohexanol acetate in a way that mimics a consumer's experience.

For `CC(=O)O[C@@H]1C[C@H](C)CC[C@H]1C(C)C` [5-methyl-2-(1-methylethyl)-cyclohexanol acetate], the “Sweat Malodor intensity rating from 1 to 10” value (shortened to “Sweat Malodor intensity rating”) ([1]; 0.1% active in feminine wash) was 4.8, the “Sweat Malodor intensity rating” value ([1]; 0.2% active in feminine wash) was 3.0 and the “Sweat Malodor intensity rating” value ([1]; 0.5% active in feminine wash) was 2.2. For the same compound, the “Feminine (Vaginal) Malodor intensity rating from 1 to 10” value (from here on “Feminine”) ([2]; 0.1% active in feminine wash) was 4.5, the “Feminine” value ([2]; 0.2% active in feminine wash) was 3.3 and the “Feminine” value ([2]; 0.5% active in feminine wash) was 2.6. For the same compound, the “Relative Amount of Malodor: skatol” value ([3]; without active 0.06) was 0.0003, the “Relative Amount of Malodor: p-cresyl isovalerate” value ([3]; without active 0.10) was 0.0002 and the “Relative Amount of Malodor: isoamyl phenylacetate” value ([3]; without active 1.20) was 0.0000. The “Relative Amount of Malodor: indole” value ([3]; without active 1.30) was 0.0300 and the “Relative Amount of Malodor: methyl phenyl acetate” value ([3]; without active 1.50) was 0.0000.

Source: US20220047476A1, “A METHOD FOR FIGHTING FEMALE BODY ODORS” (SYMRISE AG, priority 2018, published 2022)
